Usually IC50 stands for the midpoint of a concentration-inhibition curve.

The test deals with Endothelial lipase (EL) (Homo sapiens (Human), UniProt Q9Y5X9). Briefly: Endothelial lipase (EL) enzymatic assay with fluorescent substrate A10070 in DMPG vesicles. Format: biochemical. Put shortly: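 Compounds were preincubated with enzyme for 30 min at 37° C before FRET-substrate vesicles (A10070 in DMPG, 0.11 mole fraction) were added. Reaction rates were obtained from the 300–900 sec slope of fluorescence at 490/530 nm.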
Chain of Endothelial lipase (EL) (Q9Y5X9 21-500): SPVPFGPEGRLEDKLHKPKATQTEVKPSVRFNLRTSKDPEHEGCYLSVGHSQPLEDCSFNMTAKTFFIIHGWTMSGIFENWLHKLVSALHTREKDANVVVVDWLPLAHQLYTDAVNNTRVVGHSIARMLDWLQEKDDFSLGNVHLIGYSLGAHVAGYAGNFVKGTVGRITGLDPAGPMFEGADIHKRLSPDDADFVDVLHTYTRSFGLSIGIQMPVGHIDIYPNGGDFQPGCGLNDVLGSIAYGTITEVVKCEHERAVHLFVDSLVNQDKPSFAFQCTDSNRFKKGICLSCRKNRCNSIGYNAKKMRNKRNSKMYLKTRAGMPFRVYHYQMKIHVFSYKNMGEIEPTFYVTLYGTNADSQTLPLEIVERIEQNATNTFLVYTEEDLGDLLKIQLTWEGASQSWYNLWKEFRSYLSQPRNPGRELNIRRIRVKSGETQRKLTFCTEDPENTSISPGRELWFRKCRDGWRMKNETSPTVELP
`COC(=O)N(C)c1cccc(-c2cc3sc(C(C(=O)NCC(=O)NC4CC4)S(C)(=O)=O)nc3cc2F)c1` (stereo not shown) [Example 547, methyl N-{3-[2-({[(cyclopropyl-carbamoyl)methyl]carbamoyl} (methanesulfonyl)methyl)-5-fluoro-1,3-benzothiazol-6-yl]phenyl}-N-methylcarbamate] registered an IC50 of 8 nM.
Under `COCCS(=O)(=O)C(C(=O)NCC(=O)NC1CC1)c1nc2cc(F)c(-c3cccc(N(C)C(=O)OC)c3)cc2s1` (stereo not shown) [Example 548, methyl N-{3-[2-({[(cyclopropyl-carbamoyl)methyl]carbamoyl}(2-methoxyethane-sulfonyl)methyl)-5-fluoro-1,3-benzothiazol-6-yl]phenyl}-N-methylcarbamate] stands 12 nM; under `COCCS(=O)(=O)C(C(=O)NCC(=O)NC1CC1)c1nc2cc(F)c(-c3cccc(NC(=O)OCc4ccccc4)c3)cc2s1` (stereo not shown) [Example 549, benzyl N-{3-[2-({[(cyclopropyl-carbamoyl)methyl]carbamoyl}(2-methoxyethane-sulfonyl)methyl)-5-fluoro-1,3-benzothiazol-6-yl]phenyl} carbamate], 4 nM.
Next, `CS(=O)(=O)C(C(=O)NCC(=O)NC1CC1)c1nc2cc(F)c(-c3cccc(NC(=O)OCc4ccccc4)c3)cc2s1` (stereo not shown) [Example 550, benzyl N-{3-[2-({[(cyclopropyl-carbamoyl)methyl]carbamoyl} (methanesulfonyl)methyl)-5-fluoro-1,3-benzothiazol-6-yl]phenyl} carbamate]: 1 nM.
Under `COCCS(=O)(=O)C(C(=O)NCC(=O)NC1CC1)c1nc2cc(F)c(-c3ccc(NC(=O)OCc4ccccc4)nc3)cc2s1` (stereo not shown) [Example 551, benzyl N-{5-[2-({[(cyclopropyl-carbamoyl)methyl]carbamoyl}(2-methoxyethane-sulfonyl)methyl)-5-fluoro-1,3-benzothiazol-6-yl]pyridin-2-yl} carbamate] stands 1 nM.
Turning to `CS(=O)(=O)C(C(=O)NCC(=O)NC1CC1)c1nc2cc(F)c(-c3ccc(NC(=O)OCc4ccccc4)nc3)cc2s1` (stereo not shown) [Example 552, benzyl N-{5-[2-({[(cyclopropyl-carbamoyl)methyl]carbamoyl} (methanesulfonyl)methyl)-5-fluoro-1,3-benzothiazol-6-yl]pyridin-2-yl}carbamate], the IC50 worked out at 1 nM.
Next, `O=C(CNC(=O)C(c1nc2cc(F)c(-c3cccc(NC(=O)OCc4ccccc4)c3)cc2s1)S(=O)(=O)CCC(F)(F)F)NC1CC1` (stereo not shown) [Example 553, benzyl N-{3-[2-({[(cyclopropyl-carbamoyl)methyl]carbamoyl}(3,3,3-trifluoropropane-sulfonyl)methyl)-5-fluoro-1,3-benzothiazol-6-yl]phenyl} carbamate]: 1 nM; `O=C(CNC(=O)C(c1nc2cc(F)c(-c3ccc(NC(=O)OCc4ccccc4)nc3)cc2s1)S(=O)(=O)CCC(F)(F)F)NC1CC1` (stereo not shown) [Example 554, benzyl N-{5-[2-({[(cyclopropyl-carbamoyl)methyl]carbamoyl}(3,3,3-trifluoropropane-sulfonyl)methyl)-5-fluoro-1,3-benzothiazol-6-yl]pyridin-2-yl} carbamate]: 3 nM; `O=C(CNC(=O)C(c1nc2cc(F)c(-c3cccc(NC(=O)OCc4ccccc4)c3)cc2s1)S(=O)(=O)C1CC1)NC1CC1` (stereo not shown) [Example 555, benzyl N-(3-{2-[(cyclopropane-sulfonyl) ({[(cyclopropyl-carbamoyl)methyl]carbamoyl})methyl]-5-fluoro-1,3-benzothiazol-6-yl}phenyl) carbamate]: 1 nM.
In turn, `O=C(CNC(=O)C(c1nc2cc(F)c(-c3ccc(NC(=O)OCc4ccccc4)nc3)cc2s1)S(=O)(=O)C1CC1)NC1CC1` (stereo not shown) [Example 556, benzyl N-(5-{2-[(cyclopropane-sulfonyl) ({[(cyclopropyl-carbamoyl)methyl]carbamoyl)methyl]-5-fluoro-1,3-benzothiazol-6-yl}pyridin-2-yl) carbamate] returned an IC50 of 15 nM. Against the preceding molecule, the IC50 is about 15-fold higher.

For the origin of these results see patent US10173991B2, “Sulfone amide linked benzothiazole inhibitors of endothelial lipase” (BRISTOL-MYERS SQUIBB COMPANY, priority 2014, dated 2019).
